Reference: patent EP0200794A1, “Derivatives of ubiquinone, process for their preparation and pharmaceutical compositions containing them” (MAGIS FARMACEUTICI S.p.A., priority 1985, dated 1986)

Experiments:
[1] = Light stability in oral preparations; type: physicochemical
[2] = system: rats of Sprague-Dawley stock; test: Chronic toxicity; type: in vivo; conditions: Sprague-Dawley rats of both sexes, oral and intravenous way, 50 mg/kg per day for three months
Experimental: The chronic toxicity of the new derivatives has been studied by oral and intravenous way in the rats of Sprague-Dawley stock of both sexes, of body weight of about 210 g. The new derivatives, used as drops or in aqueous solution, have been administred to groups of 10 animals (5 males and 5 females). The tests have been carried out in parallel with equivalent amounts of ubiquinone (hydroalcoholic solution). The doses have been of 50 mg/kg per day for three months.

| Compound | stability under the effect of the light [1] | toxic effects (chronic toxicity) [2] |
| --- | --- | --- |
| Ubiquinone bisulphite [Example 1] | high stability |  |
| COC1=C(OC)C(=O)C(C/C=C(\C)CC/C=C(\C)CC/C=C(\C)CC/C=C(\C)CC/C=C(\C)CC/C=C(\C)CC/C=C(\C)CC/C=C(\C)CC/C=C(\C)CCC=C(C)C)=C(C)C1=O [ubiquinone, Ubiquinone(10)] |  | No toxic effects |
